By half-life is commonly meant the time needed for the level to fall by half in the phase considered. Low values mean fast loss, high ones slow loss.

The text below walks through data of publication PMC6498537, “Biomimetic synthesis of the natural product salviadione and its hybrids: discovery of tissue-specific anti-inflammatory agents for acute lung injury” (Chemical Science, 2019).

Data set [1] in a line: Liver microsomal stability assay, rat. Particulars: rat liver microsomes. The format is in vitro ADME. The procedure: Liver Microsomal Stability Assay. Microsomes in 0.1 M TRIS buffer pH 7.4 (final concentration 0.33 mg/mL), co-factor MgCl2 (final concentration 5 mM) and tested compound (final concentration 0.1 μM, co-solvent (0.01% DMSO) and 0.005% Bovin serum albumin) were incubated at 37°C for 10min. The reaction was started by the addition of NADPH (final concentration 1 mM). Aliquots were sampled at 0, 7, 17, 30 and 60 min, respectively, and methanol (cold in 4 °C) was added to terminate the […]
reaction. […]
On the technique in general: Liver microsomes are vesicles of endoplasmic reticulum, rich in cytochrome P450 enzymes.

The subject of the next data set is LPS-induced ALI in mice. The experiment in a line: LPS-induced acute lung injury (ALI) in mice. The class given is in vivo. The procedure:
LPS-Induced Acute Lung Injury (ALI) in B6 Mice. Compound 15a was first
dissolved with macrogol 15 hydroxystearate (a nonionic solubilizer for injection from
BASF) with or without medium chain triglycerides (MCT, from BASF) in a water bath
at 37 °C. The concentration of compound was 2 mg/mL. The concentration of
solubilizer was 5−10%, and that for MCT was 0.5−2% in final solution. For the vehicle,
the mixture of solubilizer and MCT was prepared at 10% and 2%, respectively. Mice,
weighing 20−24 g, were randomized to the following three groups of seven animals
each: CON group, LPS group, 15a + LPS group. 15a + LPS group mice were pretreated
with compounds in a water solution (5 mg/kg) by i.v injection 15 min before 5 mg/kg
of LPS was administered by intratracheal instillation. The animals in CON group
received a similar volume of vehicle. After 6 hours, mice were euthanized to collect the
BALF, serum and lung tissue samples. […]
Determination Total Protein Concentration and Number of Neutrophils in BALF.
Bronchoalveolar lavage fluid (BALF) cells and supernatant were separated by
centrifugal separation at 4 °C and 3,000 rpm for 10 minutes. Total protein concentration
in supernatant of BALF was measured using a coomassie blue staining assay kit
according to the manufacturer's instructions. The cells of BALF were resuspended in
40 μL of physiological saline and used for neutrophil cell counts by Wright–Giemsa
Serum Analysis. Blood was collected from mice at sacrifice and was centrifuged at 4
°C and 12,000 rpm for 10 minutes. […]
Real-Time Quantitative PCR. Lung tissues were homogenized in TRIZOL kit
(Invitrogen, Carlsbad, CA) for extraction of RNA according to each manufacturer’s
protocol. Both reverse transcription and quantitative PCR were carried out using a two-
step M-MLV Platinum SYBR Green qPCR SuperMix-UDG kit (Invitrogen, Carlsbad,
CA). Eppendorf Mastercycler ep realplex detection system (Eppendorf, Hamburg,
Germany) was used for RT-qPCR analysis. The primers of genes including TNF-α,
IL-6, IL-1β, ICAM-1, and β-actin were synthesized by Invitrogen. The primer
sequences of mouse genes used are shown as follows:
TNF-α sense primer, 5′-[…]-3
TNF-α antisense primer, 5′-[…]-3′;
IL-6 sense primer, 5′-[…]-3′;
IL-6 antisense primer, 5′-[…]-3′;
IL-1β sense primer, 5′-[…]-3′;
IL-1β antisense primer, 5′-[…]-3′;
ICAM-1 sense primer, 5′-[…]-3′;
ICAM-1 antisense primer, 5′-[…]-3′;
β-actin sense primer, 5′-[…]-3′;
β-actin antisense primer, 5′-[…]-3′.
Statistical Analysis. The results are presented as the mean ±SD. The Student’s t test
was employed to analyze the differences between sets of data. Statistics were performed
using GraphPad Pro (GraphPad, San Diego, CA). P values less than 0.05 (p < 0.05)

[2] abbreviates: pretreatment 5 mg kg^–1 i.v., LPS, 6 h.

In turn, `Cc1coc2c1C(=O)c1c3c-2ccc2c3c(n1Cc1ccccc1)C(=O)CC2(C)C` [Compound 15a] registered a half-life at 0.1 μM in data set [1] (pH 7.4) of 23.5 min. Further, the Clint in vitro in data set [1] is listed as 89.44 mL min^–1 g^–1 protein. In addition, the “mRNA expression of TNF-α, IL-6, IL-1β and ICAM-1 in lung tissue (RT-qPCR)” value with LPS-induced ALI in mice (LPS-treated lung tissues, 5 mg/kg i.v.) is on record as “markedly suppressed”. For the same molecule, in the data set with LPS-induced ALI in mice (pretreatment 5 mg kg^–1 i.v., 15 min before LPS 5 mg/kg intratracheal, 6 h), the “lung wet/dry weight ratio (lung edema)” value is listed as “effectively reduced”. Also, the “lung macrophage infiltration (CD68 immunostaining)” value in the data set with LPS-induced ALI in mice (pretreatment 5 mg kg^–1 i.v., LPS) is “significantly attenuated”. For the same molecule, in the data set with LPS-induced ALI in mice (setting [2]), the “histopathological features of lung (H&E)” value is “very little histopathological changes”, the “level of IL-6 in BALF” value is “distinctly suppressed”, the “level of IL-6 in serum” value is “no significant inhibition” and the “level of TNF-α in BALF” value is given as “distinctly suppressed”. In the data set on LPS-induced ALI in mice (setting [2]), the “level of TNF-α in serum” value is recorded as “no significant inhibition”, the “number of neutrophils in BALF” value is given as “significantly decreased” and the “protein concentration in BALF” value is listed as “significantly inhibited”.
